Source: patent US10426757B2, “Compositions and methods for promoting intestinal stem cell and/or non-stem progenitor cell function” (Whitehead Institute for Biomedical Research, priority 2014, dated 2019)
“Also recorded” adds a separate entry of the source.

How the values were obtained:
Lgr5-GFP^hi ISCs = experiment: Organoid formation by sorted Lgr5-GFP^hi ISCs with or without Paneth cells; assay type: cell-based, mouse; details: ISCs from GW501516-treated mice, no Paneth cells, vs vehicle; listed as GW501515
Procedure: Isolated ISCs or progenitor cells were centrifuged for 5 minutes at 250 g, re-suspended in the appropriate volume of crypt culture medium (500-1,000 cells μl^−1), then seeded onto 25-30 μl Matrigel™ (Corning 356231 growth factor reduced) containing 1 μM jagged (Ana-Spec) in a flat bottom 48-well plate (Corning 3548). Alternatively, ISCs and Paneth cells were mixed after sorting in a 1:1 ratio, centrifuged, and then seeded onto Matrigel™. The Matrigel™ and cells were allowed to solidify before adding 300 μl of crypt culture medium. The crypt media was changed every second or third day. Organoid bodies were quantified on days 3, 7 and 10 of culture, unless otherwise specified. With respect to the study results presented in FIGS. 14-16, organoid bodies were quantified on day 3-4. In secondary experiments, individual primary organoids were mechanically dissociated and re-plated, or organoids were dissociated for 10 minutes in TrypLE Express at 32° C., re-suspended with SMEM (Life Technologies), centrifuged and re-suspended in cold SMEM with viability dye 7-AAD. Live cells were sorted and seeded onto Matrigel™ as previously described.

[1] = test system: crypt base columnar cells and transit-amplifying cells; experiment: BrdU incorporation into ISCs and TA-cells; assay type: in vivo, mouse; details: GW501516-treated mice, 4 hours after BrdU pulse
Procedure: Mice were housed in the Unit for Laboratory Animal Medicine at the Whitehead Institute for Biomedical Research and Koch Institute for Integrative Cancer Research. Lgr5-EGFP-IRES-CreERT2 mice (strain name: […] B6.129S4-Gt(ROSA)26Sor^tm1Sor/J, stock number 003474) were obtained from the Jackson Laboratory. […] Control mice were age-matched and fed normal chow ad libitum. GW501516 (Enzo) was reconstituted in DMSO at 4.5 mg ml^-1 and diluted 1:10 in a solution of 5% PEG400 (Hampton Research), 5% Tween80 (Sigma), 90% H2O for a daily intraperitoneal injection of 4 mg/kg. Apc exon 14 was excised by tamoxifen suspended in sunflower seed oil (Spectrum […]) at a concentration of 10 mg ml^-1, and 250 μl per 25 g of body weight was administered by intraperitoneal injection to mice twice over 4 days before harvesting tissue. BrdU was prepared at 10 mg ml^-1 in PBS, passed through 0.22 μm filter and injected at 100 mg kg^-1. As previously described^5, tissues were fixed in 10% formalin, paraffin embedded and sectioned. Antigen retrieval was performed with Borg Decloaker RTU solution (Biocare Medical) in a pressurized Decloaking Chamber (Biocare Medical) for 3 minutes. […]

PPAR-δ target genes = experiment: PPAR-δ target gene and protein expression in flow sorted ISCs and progenitors (qRT-PCR, immunoblot, RNA-seq); assay type: in vivo, mouse; details: GW501516 for 4 weeks, protein level
Excerpt: Antibodies: rabbit polyclonal anti-PPAR-δ (1:100, Thermo PA1-823A), rabbit polyclonal anti-Cpt1a (1:250, ProteinTech 15184-1-AP), rabbit polyclonal anti-HMGCS2 (1:500, Sigma AV41562), rabbit monoclonal anti-FABP1 (1:1000, Abcam ab129203), rabbit polyclonal anti-γ-tubulin (1:1000, Sigma T5192). Lgr5-GFP^hi ISCs or GFP^low progenitors were sorted directly into sample buffer and boiled for five minutes. Samples were resolved by SDS-PAGE and analyzed by immunoblotting with goat anti-rabbit IgG-HRP secondary antibodies (1:10,000, Santa Cruz Biotechnology sc-2054) and Western Lightning Plus-ECL detection kit (Perkin Elmer, NEL 104001EA).
Cells were sorted into Tri Reagent (Life Technologies) and total RNA was isolated according to the manufacturer's instructions with following modification: the aqueous phase containing total RNA was purified using RNeasy plus kit (Qiagen). RNA was converted to eDNA with cDNA synthesis kit (Bio-Rad). qRT-PCR was performed with SYBR green master mix (Bio-Rad) on Bio-Rad iCycler RT-PCR detection system. Primers used are listed on Table 4 below.
RNA Isolation. […] From the total RNA, poly(A)^+ RNA was selected using Oligo(dT)25-Dynabeads (Life technologies) according to the manufacturer's protocol.

β-catenin target genes = experiment: Single cell qPCR of β-catenin target genes; assay type: in vivo, mouse; details: ISCs and progenitors from GW501516-treated mice
Procedure: For one-tube single-cell sequence-specific pre-amplification, individual primer sets of β-catenin target genes (total of 96) were pooled to 0.1 mM final concentration for each primer. Single cells were directly sorted into 96 well plates containing 5 ul RT-PCR master mix (2.5 ul CellsDirect reaction mix, Invitrogen; 0.5 ul primer pool; 0.1 ul RT/Taq enzyme, Invitrogen; 1.9 ul nuclease free water) in each well. Immediately after, plates were placed on PCR machine for pre-amplification. Sequence specific pre-amplification PCR protocol was as following: 1) 60 minutes at 50° C. for cell lyses and sequence specific reverse transcription, 2) 3 minutes at 95° C. for reverse transcriptase inactivation and Taq polymerase activation. Then, cDNA was amplified by 20 cycles of 15 seconds at 95° C. for initial denaturation, […] at 60° C. for annealing and elongation. After pre-amplification, samples were diluted 1:5 prior to high throughput microfluidic real time PCR analysis using Fluidgm platform. […] Threshold crossing (Ct) values were calculated using the BioMark Real-Time PCR Analysis software (Fluidgm). […] Fold-changes were calculated as the difference of median of log2 expression levels for the two cell populations. […]

Cc1cc(SCc2sc(-c3ccc(C(F)(F)F)cc3)nc2C)ccc1OCC(=O)O [GW501516, 2-[2-methyl-4-[[4-methyl-2-[4-(trifluoromethyl)phenyl]-1,3-thiazol-5-yl]methylsulfanyl]phenoxy]acetic acid]
Paneth cell-independent organoid-initiating capacity of Lgr5-GFP^hi ISCs (Lgr5-GFP^hi ISCs): sufficient to enhance
proliferation of CBC cells and transit-amplifying cells [1]: augmented; also recorded: enhanced the proliferation
PPAR-δ target proteins in ISCs and progenitors (PPAR-δ target genes): strong induction; also recorded: upregulated
transcription of β-catenin target genes (Bmp4, Jag1, Jag2, Edn3) (β-catenin target genes): induction
